Reference: ChEMBL document CHEMBL1138052, “Discovery and optimization of anthranilic acid sulfonamides as inhibitors of methionine aminopeptidase-2: a structural basis for the reduction of albumin binding” (J Med Chem, 2006)

Assay: Protein binding in rat plasma
Assay type: ADME, organism-based
Settings: read-out: PPB (converted)

fraction unbound	Structure (SMILES)
0.003	Cc1ccc(NS(=O)(=O)c2ccccc2)c(C(=O)O)c1
0.002	O=C(O)c1c(NS(=O)(=O)c2ccccc2)ccc2c1CCCC2
